Reference: PubChem BioAssay AID1918996 (Molecular Pharmacology Branch, DTP, NCI, 2023)

Tested on: 349418-098-R-PDC complex spheroid growth
Assay: Anticancer human tumor 349418-098-R-PDC patient-derived lung adenocarcinoma cell line growth inhibition [AhR]
Conditions: for IC50: curve of first compound; for viability, T/C: stronger effect = lower value
Procedure, shortened: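 Spheroids combined tumor cells with HUVEC endothelial cells and human MSCs as stroma. AhR antagonists were paired with standard or investigational drugs, each dosed in half-log steps down from near clinical Cmax, or from 10 microM where Cmax was unknown.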

[1] = second compound 0.1 µM, first compound 0.00949 µM
[2] = second compound 0.1 µM, first compound 0.03 µM
[3] = second compound 0.1 µM, first compound 0.0949 µM
[4] = second compound 0.1 µM, first compound 0.3 µM
[5] = second compound 0.1 µM, first compound 0.949 µM
[6] = second compound 0.1 µM, first compound 3 µM
[7] = second compound 0.316 µM, first compound 0.00949 µM
[8] = second compound 0.316 µM, first compound 0.03 µM
[9] = second compound 0.316 µM, first compound 0.0949 µM
[10] = second compound 0.316 µM, first compound 0.3 µM
[11] = second compound 0.316 µM, first compound 0.949 µM
[12] = second compound 0.316 µM, first compound 3 µM
[13] = second compound 1 µM, first compound 0.00949 µM
[14] = second compound 1 µM, first compound 0.03 µM
[15] = second compound 1 µM, first compound 0.0949 µM
[16] = second compound 1 µM, first compound 0.3 µM
[17] = second compound 1 µM, first compound 0.949 µM
[18] = second compound 1 µM, first compound 3 µM
[19] = second compound 3.16 µM, first compound 0.00949 µM
[20] = second compound 3.16 µM, first compound 0.03 µM
[21] = second compound 3.16 µM, first compound 0.0949 µM
[22] = second compound 3.16 µM, first compound 0.3 µM
[23] = second compound 3.16 µM, first compound 0.949 µM
[24] = second compound 3.16 µM, first compound 3 µM
[25] = second compound 10 µM, first compound 0.00949 µM
[26] = second compound 10 µM, first compound 0.03 µM
[27] = second compound 10 µM, first compound 0.0949 µM
[28] = second compound 10 µM, first compound 0.3 µM
[29] = second compound 10 µM, first compound 0.949 µM
[30] = second compound 10 µM, first compound 3 µM
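Also: spheroids exposed to agents for seven days before luminescence viability read.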

| IC50 (second compound 0.1 µM) [nM] | IC50 (second compound 0.316 µM) [nM] | IC50 (second compound 1 µM) [nM] | IC50 (second compound 3.16 µM) [nM] | IC50 (second compound 10 µM) [nM] | Compound | viability, T/C [1] [%] | viability, T/C [2] [%] | viability, T/C [3] [%] | viability, T/C [4] [%] | viability, T/C [7] [%] | viability, T/C [8] [%] | viability, T/C [9] [%] | viability, T/C [10] [%] | viability, T/C [13] [%] | viability, T/C [14] [%] | viability, T/C [15] [%] | viability, T/C [16] [%] | viability, T/C [19] [%] | viability, T/C [20] [%] | viability, T/C [21] [%] | also measured |
| --- | --- | --- | --- | --- | --- | --- | --- | --- | --- | --- | --- | --- | --- | --- | --- | --- | --- | --- | --- | --- | --- |
| > 3000 | > 3000 | > 3000 | > 3000 | 273 | CCN(c1cc(-c2ccc(CN3CCOCC3)cc2)cc(C(=O)NCc2c(C)cc(C)[nH]c2=O)c1C)C1CCOCC1 + CC(CO)NC(=O)c1cc(-c2ccc(Cl)cc2)nn(-c2cnn(C)c2)c1=O | 110 | 110 | 86.7 | 79.4 | 95 | 118 | 107 | 89.2 | 114 | 123 | 107 | 76.2 | 77.5 | 63.4 | 72.4 | viability, T/C [5]: 87.1%; viability, T/C [6]: 74.7%; viability, T/C [11]: 96%; viability, T/C [12]: 76.1%; viability, T/C [17]: 95.1%; viability, T/C [18]: 59.7%; viability, T/C [22]: 67.9%; viability, T/C [23]: 41.9%; viability, T/C [24]: 70.4%; viability, T/C [25]: 54.2%; viability, T/C [26]: 79%; viability, T/C [27]: 85.6%; viability, T/C [28]: 40.5%; viability, T/C [29]: 55.5%; viability, T/C [30]: 47.9% |
| 87.6 | 32.4 | 45.7 | 24.9 | 19.9 | Nc1ncn(C2CC(O)C(CO)S2)c(=O)n1 (stereo not given) + CC(CO)NC(=O)c1cc(-c2ccc(Cl)cc2)nn(-c2cnn(C)c2)c1=O | 56.2 | 62.2 | 60.8 | 31.9 | 68.8 | 52.6 | 47.8 | 27.4 | 90.5 | 53.7 | 37.8 | 21.4 | 66.5 | 47 | 39.9 | viability, T/C (second compound 0.1 µM, first compound 0.000949 µM): 86.5%; viability, T/C (second compound 0.1 µM, first compound 0.003 µM): 85.5%; viability, T/C (second compound 0.316 µM, first compound 0.000949 µM): 72.6%; viability, T/C (second compound 0.316 µM, first compound 0.003 µM): 118%; viability, T/C (second compound 1 µM, first compound 0.000949 µM): 96.4%; viability, T/C (second compound 1 µM, first compound 0.003 µM): 68.9%; viability, T/C (second compound 3.16 µM, first compound 0.000949 µM): 86.1%; viability, T/C (second compound 3.16 µM, first compound 0.003 µM): 58%; viability, T/C [22]: 24.2%; viability, T/C (second compound 10 µM, first compound 0.000949 µM): 53.5%; viability, T/C (second compound 10 µM, first compound 0.003 µM): 71.8%; viability, T/C [25]: 60%; viability, T/C [26]: 43.1%; viability, T/C [27]: 33.3%; viability, T/C [28]: 24.5% |
| < 9.49 | < 9.49 | 16.9 | < 9.49 | < 9.49 | O=C(C=Cn1cnc(-c2cc(C(F)(F)F)cc(C(F)(F)F)c2)n1)NNc1cnccn1 + CC(CO)NC(=O)c1cc(-c2ccc(Cl)cc2)nn(-c2cnn(C)c2)c1=O | 44.2 | 32.1 | 18 | 9.7 | 42.7 | 34.2 | 22.2 | 10.9 | 62.4 | 37.9 | 20.1 | 11.7 | 48 | 43.3 | 18.6 | viability, T/C [5]: 8.06%; viability, T/C [6]: 6.68%; viability, T/C [11]: 7.86%; viability, T/C [12]: 5.14%; viability, T/C [17]: 9.27%; viability, T/C [18]: 5.79%; viability, T/C [22]: 9.44%; viability, T/C [23]: 7.82%; viability, T/C [24]: 5.81%; viability, T/C [25]: 36.1%; viability, T/C [26]: 34.6%; viability, T/C [27]: 18.9%; viability, T/C [28]: 8.82%; viability, T/C [29]: 7.38%; viability, T/C [30]: 6.61% |
